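A five-concentration, 48-hour dose response in 96-well plates underlies each endpoint, interpolated linearly between surrounding concentrations. Abbreviation: GI50, concentration required for 50% inhibition of growth.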 Active and inactive are the calls of the source. No stated cut-off is given here; in the data, active = GI50 up to about 1.1 µM and inactive = higher.
Legend:
Assay in all cases: DTP human tumour cell line panel, 48 h
[1] = test system: SK-MEL-2
[2] = test system: EKVX
[3] = test system: CCRF-CEM
[4] = test system: SK-MEL-28
[5] = test system: HOP-62
[6] = test system: OVCAR-3
[7] = test system: MDA-MB-435
[8] = test system: UO-31
[9] = test system: SR
[10] = test system: NCI-H23
[11] = test system: A549
[12] = test system: Malme-3M
[13] = test system: M14
[14] = test system: NCI-H522
[15] = test system: PC-3
[16] = test system: SF-295
[17] = test system: SW-620
[18] = test system: SK-OV-3
[19] = test system: SF-268
[20] = test system: HCC 2998

Row | Structure (SMILES) | GI50 [1] | GI50 [2] | GI50 [3] | GI50 [4] | GI50 [5] | GI50 [6] | GI50 [7] | GI50 [8] | GI50 [9] | GI50 [10] | GI50 [11] | GI50 [12] | GI50 [13] | GI50 [14] | GI50 [15] | GI50 [16] | GI50 [17] | GI50 [18] | GI50 [19] | GI50 [20]
1 | O=C1NC2NC3NC(=O)NC3NC2N1 (stereo unspecified) | > 100 µM (inactive) | > 100 µM (inactive) | > 100 µM (inactive) | > 100 µM (inactive) | > 100 µM (inactive) | > 100 µM (inactive) | > 100 µM (inactive) | > 100 µM (inactive) | > 100 µM (inactive) | > 100 µM (inactive) | > 100 µM (inactive) | > 100 µM (inactive) | > 100 µM (inactive) | > 100 µM (inactive) | > 100 µM (inactive) | > 100 µM (inactive) | > 100 µM (inactive) | – | – | –
2 | COc1cc2c(cc1OC)C1=C(C=O)c3ccc(OC)c(OC)c3C(O)N1CC2 (stereo unspecified) | 13.8 µM (inactive) | 21.6 µM (inactive) | 33.7 µM (inactive) | 31 µM (inactive) | 39.7 µM (inactive) | 39 µM (inactive) | 32.2 µM (inactive) | 37.5 µM (inactive) | – | 24.8 µM (inactive) | 22.7 µM (inactive) | 24.5 µM (inactive) | 21.9 µM (inactive) | 25.1 µM (inactive) | 17.5 µM (inactive) | 24 µM (inactive) | 37.2 µM (inactive) | 65.8 µM (inactive) | 27.5 µM (inactive) | 13.2 µM (inactive)
3 | N=C(N)SCCN1CCCCC1 | 2.98 µM (inactive) | 60.3 µM (inactive) | – | 28.5 µM (inactive) | 46.5 µM (inactive) | 22.2 µM (inactive) | 19.4 µM (inactive) | 25.5 µM (inactive) | 21 µM (inactive) | 26.1 µM (inactive) | 56 µM (inactive) | 12.5 µM (inactive) | 19.9 µM (inactive) | 7.5 µM (inactive) | 15.9 µM (inactive) | > 100 µM (inactive) | 29.8 µM (inactive) | 46.8 µM (inactive) | 24.4 µM (inactive) | –
4 | CN1C(=O)C2(C)SC1(c1ccccc1)C1C(=O)N(c3ccccc3)C(=O)C12 (stereo unspecified) | 75 µM (inactive) | 98.9 µM (inactive) | – | > 100 µM (inactive) | > 100 µM (inactive) | > 100 µM (inactive) | 76 µM (inactive) | > 100 µM (inactive) | 64.1 µM (inactive) | > 100 µM (inactive) | 49.8 µM (inactive) | > 100 µM (inactive) | > 100 µM (inactive) | 96.4 µM (inactive) | 43.4 µM (inactive) | 54.6 µM (inactive) | > 100 µM (inactive) | > 100 µM (inactive) | > 100 µM (inactive) | –
5 | CC(C)(C)[Si](C)(C)OC1(CCc2ccccc2OS(=O)(=O)C(F)(F)F)CCCC=C1COCc1ccccc1 (stereo unspecified) | 4.59 µM (inactive) | > 100 µM (inactive) | 5.19 µM (inactive) | > 59.6 µM (inactive) | > 100 µM (inactive) | > 100 µM (inactive) | > 100 µM (inactive) | – | 1.86 µM (inactive) | 9.62 µM (inactive) | 0.325 µM (active) | 0.202 µM (active) | – | 2.79 µM (inactive) | 3.51 µM (inactive) | 6.34 µM (inactive) | 58.1 µM (inactive) | > 100 µM (inactive) | – | –
6 | COC(=O)/C(C#N)=C(\N)c1c(C)c2ccccc2oc1=N | > 100 µM (inactive) | > 100 µM (inactive) | – | > 100 µM (inactive) | > 100 µM (inactive) | > 100 µM (inactive) | > 100 µM (inactive) | – | > 100 µM (inactive) | – | > 100 µM (inactive) | – | – | > 100 µM (inactive) | > 100 µM (inactive) | > 100 µM (inactive) | > 100 µM (inactive) | > 100 µM (inactive) | – | –
